# Test results taken from patent publication US10213449B2, “Compositions and methods for treating medulloblastoma” (The Board of Trustees of the Leland Stanford Junior …, priority 2016, dated 2019).
# “Also recorded” adds a separate entry of the source.
# Columns and labels:
# [1] = tested on: Ptch+/−; Trp53−/− MB flank allografts; assay: Flank allograft study, Ptch+/−; Trp53−/− MB; type: in vivo, mouse; conditions: TBB 30 mg/kg IP BID; effect as early as 3 days after initiating treatment; vs vehicle control
# Experimental: (§1) In vivo efficacy studies were performed in accordance with protocols approved by the Institutional Animal Care and Use Committee at Stanford University. SmoWT-MB and Smo[…]-MB cells isolated from either parental SmoWT or Smo[…] mouse Ptch^+/-; p53^-/- MB hind-flank allografts were kindly provided by Charles Rudin (Memorial Sloan-Kettering Cancer Center). Ptch+/-; Tpr53-/-, or, Ptch+/-; Tpr53-/-; Smo[…] MB cells were mixed 1:1 with matrigel and 10^7 cells were injected into both flanks of a Nu/Nu mouse. Once tumors reached 225-275 mm^3, mice were randomized to treatment vs. control groups. Treatment groups received 30 mg/kg IP BID of TBB (reconstituted in DMSO at 50 ug/uL), or 37.5 mg/kg IP BID of GDC-0449 (reconstituted in DMSO at 62.5 ug/uL). Control mice were treated with an equivalent volume of DMSO. Corn oil was used in all groups to a total volume of 180 uL/injection and all doses were given with a 28 g insulin syringe. Tumors were measured and mice were weighed daily. Once tumors reached 1.5 cm^2 or met institutional euthanasia criteria, mice were sacrificed and tumors were harvested. Growth curves were generated using GraphPad Prism and significance was measured by two-way ANOVA.
# [2] = tested on: Ptch+/−; Tpr53−/−; SmoD477G MB flank allografts; assay: Flank allograft study, SMO inhibitor-resistant MB; type: in vivo, mouse
# Experimental: as §1
smiles,measurement,setting,value
"Brc1c(Br)c(Br)c2[nH]nnc2c1Br [TBB, 4,5,6,7-tetrabromo-2H-benzotriazole]",MB flank allograft growth,[1],significant inhibition; also recorded: decreased growth
same,tumor growth of SmoD477G MB flank allografts,[2]; TBB 30 mg/kg IP BID or GDC-0449 37.5 mg/kg IP BID vs vehicle control,near-complete cessation of tumor growth; also recorded: significant response
same,BrdU incorporation in flank allografts,"[2]; following TBB administration, relative to GDC-0449 and control treated mouse",Decreased
